The values below come from US12303521B2, “Methods for treating liver cancers using an orally administered dioxolane nucleotide in combination with an anti-PD1 or anti-PDL1 monoclonal antibody” (MEDIVIR AB, priority 2019, dated 2025).

Data set [1] deals with HT-29 colorectal adenocarcinoma cell line+HDFn+PBMC. Briefly: BioMAP StroHT29 system. Type of data set: cell-based, human. The conditions noted are these: stromal IL-6, FIG. 14. The source says: (§1) To recapitulate the complex signaling networks that manifest in the multi-component TME, the BioMAP Oncology systems co-culture human primary immune cells with primary tissue cells in the presence of a specific cancer cell line. These co-cultures are stimulated with submitogenic levels of T cell receptor (TCR) ligands to prime, but not maximally activate T cells and model immune cells recruited to the intra-tumoural microenvironment.
There are two BioMAP Oncology panels that model the interactions between the immune-stromal (fibroblasts) and immune-vascular (endothelial cells) environments in the context of colon cancer (HT-29 CRC cell line), or in the context of non-small lung cancer (NCI-H1299 NSCLC cell line). The interactions between tumour cells, stimulated immune cells (peripheral blood mononuclear cells (PBMC)), and the host stromal network (human neonatal dermal fibroblasts (HDFn)) is captured in the Stro Oncology systems. […]
Adherent cell types are cultured in 96-well plates until confluent, followed by the addition of PBMC. […] Soluble factors from supernatants are quantified using either HTRF® detection, bead-based multiplex immunoassay or capture ELISA. Effects of test agents on cell viability (cytotoxicity) are measured by sulforhodamine B (SRB) for adherent cells (48-hrs), and by alamarBlue® reduction for cells in suspension (42-hrs) at the time points indicated. […]

Data set [2] has as its system Human PBMC. Briefly: IL-2 expression in SEB-stimulated PBMC cultures. Type of data set: cell-based. The conditions noted are these: five days, Luminex.
A short description of data set [3]: Stability in rodent blood / plasma. The data set is classed as in vitro ADME.
Data set [4] concerns HT-29. In words: Sensitivity of HT-29 cells to MIV-818 alone (IC50). Type of data set: cell-based. The conditions noted are these: Homo sapiens; HT-29, MIV-818 alone.
Data set [5] has as its system SK-OV-3 tumour cells. Briefly: PBMC-mediated tumour cell killing. The data set is classed as cell-based, human. To be noted: anti-CD3 stimulated PBMC co-culture, 68 hrs, 5000 nM MIV-818. On the procedure: Whole blood from three healthy donors was used. PBMC were isolated over a density gradient and counted before adding to NucLight Red labelled tumour targets at a defined E:T ratio in the presence of anti-CD3 stimulation. Tumour cell—PBMC co-cultures were incubated with test compounds at eight concentrations. Appropriate controls were included: PBMC alone, tumour cells alone, tumour cells/PBMC in the presence of a reference compound at a single concentration. All test conditions were also plated onto tumour cells in the absence of stimulated PBMC in order to detect direct compound-associated tumour cytotoxicity. Tumour killing was evaluated by counting viable NucLight positive tumour cells over time. In addition, a Caspase 3/7 dye was used to identify apoptotic tumour cells. Cultures were analysed using an IncuCyte ZOOM machine which allows real-time quantitative live cell fluorescent imaging. Co-cultures were imaged over 68 hrs. Each culture condition was established in triplicate. Cell culture supernatants were stored for optional cytokine analysis.
PBMC were isolated from 3 healthy donors and added to co-cultures with anti-CD3 stimulation and NucLight Red labelled SK-OV-3 tumour cells. […] SK-OV-3 apoptotic cell death was monitored in the co-culture system by imaging for 68 hours using the IncuCyte Zoom software.

The test system of data set [6] is vascular or stromal models of HT-29 and peripheral blood mononuclear cells (PBMCs). Briefly: BioMAP Oncology CRC panel, system not specified (tumour immune microenvironment model). Type of data set: cell-based, human. The conditions noted are these: 4 concentrations, 48-hrs, vs vehicle control.
Description: as §1
There are two BioMAP Oncology panels that model the interactions between the immune-stromal (fibroblasts) and immune-vascular (endothelial cells) environments in the context of colon cancer (HT-29 CRC cell line), or in the context of non-small lung cancer (NCI-H1299 NSCLC cell line). The interactions between tumour cells, stimulated immune cells (peripheral blood mononuclear cells (PBMC)), and the host stromal network (human neonatal dermal fibroblasts (HDFn)) is captured in the Stro Oncology systems. In parallel, the Vasc systems capture the interactions between tumour cells, activated immune cells and the vascular tissue (human umbilical vein endothelial cells (HUVEC). The biomarkers selected for the Oncology panels inform on activities related to inflammation, immune-function, tissue remodeling and metastasis in the context of a host tumour-microenvironment. Collectively, the Oncology CRC panel and the Oncology NSCLC panel.
Human primary cells in BioMAP systems are used at early passage (passage 4 or earlier) to minimize adaptation to cell culture conditions and preserve physiological signaling responses. All primary cells are pooled from multiple donors (n=3-6), commercially purchased and handled according to the recommendations of the manufacturers. The HT-29 CRC cell line and the NCI-H1299 NSCLC cell line are purchased from American Type Culture Collection (ATCC). Abbreviations are used as follows: human umbilical vein endothelial cells (HUVEC), peripheral blood mononuclear cells (PBMC), human neonatal dermal fibroblasts (HDFn) and T cell receptor (TCR). Systems in both the Oncology CRC and NSCLC panels are stimulated by sub-mitogenic levels of super antigens (SAg) acting via the TCR to recapitulate the recruitment of immune cells to the tumour environment in situ. These stimulation conditions are optimized to activate or prime T cells, but not drive T cell proliferation.
Cell types used in each of the CRC systems are as follows: StroHT29 system [HT-29 colorectal adenocarcinoma cell line+HDFn+PBMC] and VascHT29 system [HT-29 colorectal adenocarcinoma cell line+HUVEC+PBMC].
Adherent cell types are cultured in 96-well plates until confluent, followed by the addition of PBMC. Test agents prepared in either DMSO (small molecules; final concentration ≤0.1%) or PBS (biologics) are added at the specified concentrations 1-hr before stimulation, and remain in culture for 48-hrs. Each plate contains drug controls (e.g., legacy control test agent colchicine), negative controls (e.g., non-stimulated condition) and vehicle controls (e.g., 0.1% DMSO). Direct ELISA is used to measure biomarker levels of cell-associated and cell membrane targets. Soluble factors from supernatants are quantified using either HTRF® detection, bead-based multiplex immunoassay or capture ELISA. Effects of test agents on cell viability (cytotoxicity) are measured by sulforhodamine B (SRB) for adherent cells (48-hrs), and by alamarBlue® reduction for cells in suspension (42-hrs) at the time points indicated. All test agents are tested in standardized formats at 4 concentrations, in triplicate. Colchicine stimulated wells, vehicle control treated wells, and wells without stimulation are included as controls on each plate (n=3-8). Data acceptance criteria are based on plate performance (% CV of controls), and the performance of positive controls across assays with a comparison to historical controls. […]

The test system of data set [7] is HepG2. In words: IC50 in representative HCC cell line HepG2. The conditions noted are these: Homo sapiens. The data set is classed as cell-based.
A short description of data set [8]: Stability in human plasma. The data set is classed as in vitro ADME.
The conditions of data set [9]: pulmonary metastatic liver cancer, Wu et al 2017; cited from earlier work.

“Also recorded” adds a separate entry of the source.

For the molecule `CCC[C@H](C)OC(=O)[C@H](C)NP(=O)(OC[C@H]1OC[C@@H](n2ccc(N)nc2=O)O1)Oc1ccc(Br)cc1` (stereo in doubt) [MIV-818], the “sIL-6 in the stromal HT-29 system” value in [1] is “inhibits”. The IL-2 expression entry in [2] is “induced”. Also, in [3] (rodent blood), the “metabolism in rodent blood” value is recorded as “very quickly metabolized”. The “stability in rodent plasma” value in [3] (rodent plasma) was “extremely unstable”. In addition, in data set [4], the IC50 (usually the concentration that gives 50% inhibition) is around 20 nM. The “PBMC-mediated tumour cell killing (apoptotic SK-OV-3 counts)” value in data set [5] is reported as “enhance”. Further, in data set [6], the “Collagen III” value was “decreased”, the IP-10 entry is reported as “decreased”, the VCAM-1 entry is “decreased” and the sIFNγ result is given as “increased”. In addition, in [6], the sIL-6 entry is listed as “decreased”, the sIL-17A result is “increased” and the uPAR result is “Decreased”. The molecule also displayed a 50% inhibitory concentration (IC50) in [7] of around 20 nM. Moreover, the “stability in human plasma” value in data set [8] was “stable”.
“pembrolizumab: humanized monoclonal IgG4 antibody directed against human cell surface receptor PD-1”: the “sIL-6 in the stromal HT-29 system” value in data set [1] was “increase; also recorded: modest enhancement”. In addition, the adverse event reported entry in [9] is on record as “liver failure”.
